Measurements: patent publication US10314823B2, “Substituted 1,2-dihydro-3H-pyrrolo[1,2-c]imidazol-3-one antibacterial compounds” (IDORSIA PHARMACEUTICALS LTD, priority 2015, dated 2019)
≈ marks a conversion by molar mass, not a printed value.

Legend:
Assay in all cases: Bacterial growth minimal inhibitory concentration (CLSI broth microdilution)
Type in all cases: cell-based
E. coli ATCC25922 = conditions: quinolone-sensitive strain, cation-adjusted Mueller-Hinton Broth; for MIC: Escherichia coli, ATCC25922
Procedure: (§1) Minimal Inhibitory Concentrations (MICs; mg/L) were determined in cation-adjusted Mueller-Hinton Broth by a microdilution method following the description given in “Methods for Dilution Antimicrobial Susceptibility Tests for Bacteria that Grow Aerobically”, Approved standard, 7th ed., Clinical and Laboratory Standards Institute (CLSI) Document M7-A7, Wayne, Pa., USA (2006).
(§2) All Reference Example compounds were tested against several Gram-negative bacteria. K. pneumoniae A-651 is a multiply resistant strain (in particular quinolone-resistant), while E. coli ATCC25922 and P. aeruginosa ATCC27853 are quinolone-sensitive strains. The corresponding antibacterial test results are given in Table 1 hereafter (MICs in mg/L).

K. pneumoniae A-651 = conditions: multiply resistant strain (in particular quinolone-resistant), cation-adjusted Mueller-Hinton Broth; for MIC: Klebsiella pneumoniae, A651
Procedure: as §1, §2

P. aeruginosa ATCC27853 = conditions: quinolone-sensitive strain, cation-adjusted Mueller-Hinton Broth; for MIC: Pseudomonas aeruginosa, ATCC27853
Procedure: as §1, §2

Compound | MIC (E. coli ATCC25922) | MIC (K. pneumoniae A-651) | MIC (P. aeruginosa ATCC27853) | MIC for E. coli ATCC25922 (E. coli ATCC25922) | MIC for K. Pneumoniae A-651 (K. pneumoniae A-651) | MIC for P. aeruginosa ATCC27853 (P. aeruginosa ATCC27853)
C[C@@](CCN1Cc2cc(C#Cc3ccc([C@@H](O)CN4CCOCC4)cc3)cn2C1=O)(C(=O)NO)S(C)(=O)=O (single isomer, unassigned) [Example 1] | 1 µg/mL (≈ 1.84 µM) | 2 µg/mL (≈ 3.67 µM) | 2 µg/mL (≈ 3.67 µM) |  |  | 
CN1C[C@H](C#CC#Cc2cc3n(c2)C(=O)N(CC[C@](C)(C(=O)NO)S(C)(=O)=O)C3)[C@H]1CF [Example 98, (2R)—N-hydroxy-4-(6-(((2S,3S)-2-(fluoromethyl)-1-methylazetidin-3-yl)buta-1,3-diyn-1-yl)-3-oxo-1H-pyrrolo[1,2-c]imidazol-2(3H)-yl)-2-methyl-2-(methylsulfonyl)butanamide] | 0.063 µg/mL (≈ 0.136 µM) | 0.25 µg/mL (≈ 0.538 µM) | 0.5 µg/mL (≈ 1.08 µM) |  |  | 
C[C@@](CCN1Cc2cc(C#CC#CC3CN(C4CCCC4)C3)cn2C1=O)(C(=O)NO)S(C)(=O)=O [Example 73, (2R)-4-(6-((1-cyclopentylazetidin-3-yl)buta-1,3-diyn-1-yl)-3-oxo-1H-pyrrolo[1,2-c]imidazol-2(3H)-yl)-N-hydroxy-2-methyl-2-(methylsulfonyl)butanamide] | 0.5 µg/mL (≈ 1.03 µM) | 0.25 µg/mL (≈ 0.514 µM) | 1 µg/mL (≈ 2.06 µM) |  |  | 
CN1CC(C)(C#CC#Cc2cc3n(c2)C(=O)N(CC[C@](C)(C(=O)NO)S(C)(=O)=O)C3)C1 [Example 65, (2R)-4-(6-((1,3-dimethylazetidin-3-yl)buta-1,3-diyn-1-yl)-3-oxo-1H-pyrrolo[1,2-c]imidazol-2(3H)-yl)-N-hydroxy-2-methyl-2-(methylsulfonyl)butanamide] | 1 µg/mL (≈ 2.24 µM) | 1 µg/mL (≈ 2.24 µM) | 1 µg/mL (≈ 2.24 µM) |  |  | 
CN1C[C@H](O)[C@@H](C#CC#Cc2cc3n(c2)C(=O)N(CC[C@](C)(C(=O)NO)S(C)(=O)=O)C3)C1 (relative stereo) [Example 99, (2R)—N-hydroxy-4-(6-(((3S*,4R*)-4-hydroxy-1-methylpyrrolidin-3-yl)buta-1,3-diyn-1-yl)-3-oxo-1H-pyrrolo[1,2-c]imidazol-2(3H)-yl)-2-methyl-2-(methylsulfonyl)butanamide] | 2 µg/mL (≈ 4.32 µM) | 2 µg/mL (≈ 4.32 µM) | 2 µg/mL (≈ 4.32 µM) |  |  | 
C[C@@](CCN1Cc2cc(C#CC#CC3CN([C@H]4C[C@@H](O)C4)C3)cn2C1=O)(C(=O)NO)S(C)(=O)=O [Example 91, (2R)—N-hydroxy-4-(6-((1-((1s,3s)-3-hydroxycyclobutyl)azetidin-3-yl)buta-1,3-diyn-1-yl)-3-oxo-1H-pyrrolo[1,2-c]imidazol-2(3H)-yl)-2-methyl-2-(methylsulfonyl)butanamide] |  |  |  | 0.5 µg/mL | 0.5 µg/mL | 1 µg/mL
(2R)-4-(6-((1-isopropylazetidin-3-yl)buta-1,3-diyn-1-yl)-3-oxo-1H-pyrrolo[1,2-c]imidazol-2(3H)-yl)-2-methyl-2-(methylsulfonyl)-N-((tetrahydro-2H-pyran-2-yl)oxy)butanamide [Example 59] |  |  |  | 1 µg/mL | 0.5 µg/mL | 0.5 µg/mL
C[C@@](CCN1Cc2cc(C#CC#CC3CNC3)cn2C1=O)(C(=O)NOC1CCCCO1)S(C)(=O)=O (stereo partly drawn) [Example 31, (2R)-4-(6-(azetidin-3-ylbuta-1,3-diyn-1-yl)-3-oxo-1H-pyrrolo[1,2-c]imidazol-2(3H)-yl)-2-methyl-2-(methylsulfonyl)-N-((tetrahydro-2H-pyran-2-yl)oxy)butanamide] |  |  |  | 8 µg/mL | 8 µg/mL | 1 µg/mL
CN1CC(OC(=O)NCc2ccc(C#Cc3cc4n(c3)C(=O)N(CC[C@](C)(C(=O)NO)S(C)(=O)=O)C4)cc2)C1 [Example 27, 1-methylazetidin-3-yl (3R)-(4-((2-(4-(hydroxyamino)-3-methyl-3-(methylsulfonyl)-4-oxobutyl)-3-oxo-2,3-dihydro-1H-pyrrolo[1,2-c]imidazol-6-yl)ethynyl)benzyl)carbamate] | 2 µg/mL (≈ 3.59 µM) | 4 µg/mL (≈ 7.17 µM) | 8 µg/mL (≈ 14.3 µM) |  |  | 
C[C@@](CCN1Cc2cc(C#Cc3ccc(CN4CC[C@H](O)[C@@H](F)C4)cc3)cn2C1=O)(C(=O)NO)S(C)(=O)=O (relative stereo) [Example 36, (2R)-4-(6-((4-(((3S*,4S*)-3-fluoro-4-hydroxypiperidin-1-yl)methyl)phenyl)ethynyl)-3-oxo-1H-pyrrolo[1,2-c]imidazol-2(3H)-yl)-N-hydroxy-2-methyl-2-(methylsulfonyl)butanamide] | 0.25 µg/mL (≈ 0.457 µM) | 0.5 µg/mL (≈ 0.915 µM) | 1 µg/mL (≈ 1.83 µM) |  |  | 
CCN1CC(C#CC#Cc2cc3n(c2)C(=O)N(CC[C@](C)(C(=O)NO)S(C)(=O)=O)C3)C1 [Example 54, (2R)-4-(6-((1-ethylazetidin-3-yl)buta-1,3-diyn-1-yl)-3-oxo-1H-pyrrolo[1,2-c]imidazol-2(3H)-yl)-N-hydroxy-2-methyl-2-(methylsulfonyl)butanamide] | 0.25 µg/mL (≈ 0.56 µM) | 0.5 µg/mL (≈ 1.12 µM) | 0.5 µg/mL (≈ 1.12 µM) |  |  | 
CN1CCC(C)(C#CC#Cc2cc3n(c2)C(=O)N(CC[C@](C)(C(=O)NO)S(C)(=O)=O)C3)C1 (mixture of isomers) [Example 82, (2R)-4-(6-(((3RS)-1,3-dimethylpyrrolidin-3-yl)buta-1,3-diyn-1-yl)-3-oxo-1H-pyrrolo[1,2-c]imidazol-2(3H)-yl)-N-hydroxy-2-methyl-2-(methylsulfonyl)butanamide] | 2 µg/mL | 2 µg/mL | 4 µg/mL |  |  | 
CN1CC(F)(C#CC#Cc2cc3n(c2)C(=O)N(CC[C@](C)(C(=O)NO)S(C)(=O)=O)C3)C1 [Example 33, (2R)-4-(6-((3-fluoro-1-methylazetidin-3-yl)buta-1,3-diyn-1-yl)-3-oxo-1H-pyrrolo[1,2-c]imidazol-2(3H)-yl)-N-hydroxy-2-methyl-2-(methylsulfonyl)butanamide] | 0.25 µg/mL (≈ 0.555 µM) | 0.25 µg/mL (≈ 0.555 µM) | 2 µg/mL (≈ 4.44 µM) |  |  | 
CN1CCN(C(=O)OCC2(C#CC#Cc3cc4n(c3)C(=O)N(CC[C@](C)(C(=O)NO)S(C)(=O)=O)C4)CC2)CC1 [Example 23, (3R)-(1-((2-(4-(hydroxyamino)-3-methyl-3-(methylsulfonyl)-4-oxobutyl)-3-oxo-2,3-dihydro-1H-pyrrolo[1,2-c]imidazol-6-yl)buta-1,3-diyn-1-yl)cyclopropyl)methyl 4-methylpiperazine-1-carboxylate] | 4 µg/mL (≈ 7.15 µM) | 4 µg/mL (≈ 7.15 µM) | 8 µg/mL (≈ 14.3 µM) |  |  | 
CN1CCC(O)(C#CC#Cc2cc3n(c2)C(=O)N(CC[C@](C)(C(=O)NO)S(C)(=O)=O)C3)CC1 [Example 48, (2R)—N-hydroxy-4-(6-((4-hydroxy-1-methylpiperidin-4-yl)buta-1,3-diyn-1-yl)-3-oxo-1H-pyrrolo[1,2-c]imidazol-2(3H)-yl)-2-methyl-2-(methylsulfonyl)butanamide] | > 8 µg/mL | > 8 µg/mL | 4 µg/mL (≈ 8.39 µM) |  |  | 
CN(CCO)C(=O)OCc1ccc(C#Cc2cc3n(c2)C(=O)N(CC[C@](C)(C(=O)NO)S(C)(=O)=O)C3)cc1 [Example 11, (3R)-4-((2-(4-(hydroxyamino)-3-methyl-3-(methylsulfonyl)-4-oxobutyl)-3-oxo-2,3-dihydro-1H-pyrrolo[1,2-c]imidazol-6-yl)ethynyl)benzyl (2-hydroxyethyl)(methyl)carbamate] | 0.5 µg/mL (≈ 0.915 µM) | 0.5 µg/mL (≈ 0.915 µM) | 2 µg/mL (≈ 3.66 µM) |  |  | 
